# Patent US20160220569A1, “CDK4/6 Inhibitor Dosage Formulations For The Protection Of Hematopoietic Stem And Progenitor Cells During Chemotherapy” (G1 Therapeutics, Inc., priority 2015, published 2016)
# Several values for one entry are separate records, joined by “and”; a condition that tells them apart may be missing. Equal entries are not always repeated. Where two headings read alike, the source gives them in different places.
# Experiments:
# Assay type in all cases: in vivo, human
# [1] = 3-compartment model pharmacokinetic analysis, Cohorts 5 and 6; conditions: for half-life: read-out: γ phase half-life averaged (converted)
# From the text: The concentration-time profile is represented by a tri-exponential equation similar to the following: […]
# Where A, B, and C are the ‘macroconstants’ which are a function of the dose, volume of distribution and the ‘microconstants’ (K12, K21, K13, K31, and K10).
# Five of these parameters are rate constants and the 6th is the volume of distribution of the central compartment (V1).
# [2] = Compound 1 PK dosed Days 1-3 with etoposide and carboplatin
# Protocol: (§1) Analysis of plasma concentration versus time data for calculation of standard pharmacokinetic (PK) parameters following intravenous infusion administration was conducted using Phoenix WinNonlin version 6.3 using a nominal infusion duration and scheduled blood sampling times.
# [3] = Compound 1 PK dosed Days 1-5 with topotecan
# Protocol: as §1
# [4] = Cohort 5, 96 mg/m^2, 3-compartment primary parameter, subjects 1-6, Mean, Median, mean
# [5] = 200 mg/m^2 with Etoposide and Carboplatin, Day 1, Max
# [6] = 200 mg/m^2 with Etoposide and Carboplatin, Day 1, Min
# [7] = 200 mg/m^2 with Etoposide and Carboplatin, Day 1, individual subjects
# [8] = 200 mg/m^2 with Etoposide and Carboplatin, Day 3, Max
# [9] = 200 mg/m^2 with Etoposide and Carboplatin, Day 3, Min
# [10] = 200 mg/m^2 with Etoposide and Carboplatin, Day 3, individual subjects
# [11] = 200 mg/m^2 with Topotecan 0.75 mg/m^2 (Cohort 3), Day 1, Max
# [12] = 200 mg/m^2 with Topotecan 0.75 mg/m^2 (Cohort 3), Day 1, individual subjects
# [13] = 200 mg/m^2 with Topotecan 1.25 mg/m^2 (Cohort 2), Day 1, Max
# [14] = 200 mg/m^2 with Topotecan 1.25 mg/m^2 (Cohort 2), Day 1, Min
# [15] = 200 mg/m^2 with Topotecan 1.25 mg/m^2 (Cohort 2), Day 1, individual subjects
smiles,measurement,setting,value
"CN1CCN(c2ccc(Nc3ncc4cc5n(c4n3)C3(CCCCC3)CNC5=O)nc2)CC1 [Compound 1, 2′-((5-(4-methylpiperazin-1-yl)pyridin-2-yl)amino)-7′,8′-dihydro-6′H-spiro[cyclohexane-1,9′-pyrazino[1′,2′:1,5]pyrrolo[2,3-d]pyrimidin]-6′-one]",Beta,[1]; [4],0.388 h⁻¹
same,Gamma,[1]; [4],0.0502 h⁻¹
same,K31,[1]; [4],0.0692 h⁻¹
same,Cmax,"[1]; both sexes, human, plasma, intravenous, 96 mg/m2, Cohort 5, 96 mg/m^2, 3-compartment secondary (derived) parameter, six subjects, Mean, Median, read-out: Cmax",991 ng/mL
same,half-life,"[1]; both sexes, human, plasma, intravenous, 96 mg/m2, 96 mg/m^2, 3-compartment model, mean",14.2 h
same,half-life,"[1]; both, human, plasma, intravenous, […]2",14 h
same,AUCinf,[2]; [5],3320 ng·h/mL
same,Cmax,[2]; [5],2170 ng/mL
same,t½,[2]; [5],10.6 h
same,AUC24.5,[2]; [6],1530 ng·h/mL
same,AUCinf,[2]; [6],1650 ng·h/mL
same,Cmax,[2]; [6],587 ng/mL
same,t½,[2]; [6],6.29 h
same,AUC24.5,[2]; [7],2850 ng·h/mL and 1930 ng·h/mL and 2010 ng·h/mL and 2520 ng·h/mL and 1530 ng·h/mL
same,AUCinf,[2]; [7],2960 ng·h/mL and 3320 ng·h/mL and 2290 ng·h/mL and 2680 ng·h/mL and 1650 ng·h/mL
same,Cmax,[2]; [7],2170 ng/mL and 742 ng/mL and 845 ng/mL and 1840 ng/mL and 587 ng/mL
same,t½,[2]; [7],8.94 h and 10.6 h and 8.91 h and 7.09 h and 7.28 h
same,AUCτ,[2]; [8],3300 ng·h/mL
same,Cmax,[2]; [8],3360 ng/mL
same,AUCτ,[2]; [9],2010 ng·h/mL
same,Cmax,[2]; [9],355 ng/mL
same,t½,[2]; [9],6.99 h
same,AUCτ,[2]; [10],3300 ng·h/mL and 2010 ng·h/mL and 2630 ng·h/mL and 2610 ng·h/mL and 2890 ng·h/mL
same,Cmax,[2]; [10],723 ng/mL and 355 ng/mL and 1190 ng/mL and 3360 ng/mL
same,pre-dose concentration averaging,"[2]; Day 3, mean",20.6 ng/mL
same,AUC,"[2]; human, plasma, intravenous, 200 mg/m2, 200 mg/m^2 with Etoposide and Carboplatin, Day 1, Geo. Mean, read-out: AUC24.5",2230 ng·h/mL
same,AUC(0-inf),"[2]; human, plasma, intravenous, 200 mg/m2, 200 mg/m^2 with Etoposide and Carboplatin, Day 1, Geo. Mean, read-out: AUCinf",2470 ng·h/mL
same,Cmax,"[2]; human, plasma, intravenous, 200 mg/m2, 200 mg/m^2 with Etoposide and Carboplatin, Day 1, Geo. Mean, read-out: Cmax",1070 ng/mL
same,half-life,"[2]; human, plasma, intravenous, 200 mg/m2, 200 mg/m^2 with Etoposide and Carboplatin, Day 1, Geo. Mean, read-out: t½ (converted)",8.07 h
same,AUC(0-inf),"[2]; human, plasma, intravenous, 200 mg/m2, 200 mg/m^2 with Etoposide and Carboplatin, Day 1, Mean, read-out: AUCinf",2530 ng·h/mL
same,Cmax,"[2]; human, plasma, intravenous, 200 mg/m2, 200 mg/m^2 with Etoposide and Carboplatin, Day 1, Mean, read-out: Cmax",1200 ng/mL
same,half-life,"[2]; human, plasma, intravenous, 200 mg/m2, 200 mg/m^2 with Etoposide and Carboplatin, Day 1, Mean, read-out: t½ (converted)",8.19 h
same,AUC,"[2]; human, plasma, intravenous, 200 mg/m2, 200 mg/m^2 with Etoposide and Carboplatin, Day 1, Median, read-out: AUC24.5",2270 ng·h/mL
same,AUC(0-inf),"[2]; human, plasma, intravenous, 200 mg/m2, 200 mg/m^2 with Etoposide and Carboplatin, Day 1, Median, read-out: AUCinf",2490 ng·h/mL
same,Cmax,"[2]; human, plasma, intravenous, 200 mg/m2, 200 mg/m^2 with Etoposide and Carboplatin, Day 1, Median, read-out: Cmax",923 ng/mL
same,half-life,"[2]; human, plasma, intravenous, 200 mg/m2, 200 mg/m^2 with Etoposide and Carboplatin, Day 1, Median, read-out: t½ (converted)",8.09 h
same,AUC,"[2]; human, plasma, intravenous, 200 mg/m2, 200 mg/m^2 with Etoposide and Carboplatin, Day 1, individual subjects, read-out: AUC24.5",2860 ng·h/mL
same,half-life,"[2]; human, plasma, intravenous, 200 mg/m2, 200 mg/m^2 with Etoposide and Carboplatin, Day 1, individual subjects, read-out: t½ (converted)",6.29 h
same,AUC,"[2]; human, plasma, intravenous, 200 mg/m2, 200 mg/m^2 with Etoposide and Carboplatin, Day 3, Geo. Mean, read-out: AUCτ",2530 ng·h/mL
same,Cmax,"[2]; human, plasma, intravenous, 200 mg/m2, 200 mg/m^2 with Etoposide and Carboplatin, Day 3, Geo. Mean, read-out: Cmax",1090 ng/mL
same,half-life,"[2]; human, plasma, intravenous, 200 mg/m2, 200 mg/m^2 with Etoposide and Carboplatin, Day 3, Geo. Mean, read-out: t½ (converted)",8.95 h
same,AUC,"[2]; human, plasma, intravenous, 200 mg/m2, 200 mg/m^2 with Etoposide and Carboplatin, Day 3, Mean, read-out: AUCτ",2570 ng·h/mL
same,Cmax,"[2]; human, plasma, intravenous, 200 mg/m2, 200 mg/m^2 with Etoposide and Carboplatin, Day 3, Mean, read-out: Cmax",1380 ng/mL
same,half-life,"[2]; human, plasma, intravenous, 200 mg/m2, 200 mg/m^2 with Etoposide and Carboplatin, Day 3, Mean, read-out: t½ (converted)",9.04 h
same,AUC,"[2]; human, plasma, intravenous, 200 mg/m2, 200 mg/m^2 with Etoposide and Carboplatin, Day 3, Median, read-out: AUCτ",2620 ng·h/mL
same,Cmax,"[2]; human, plasma, intravenous, 200 mg/m2, 200 mg/m^2 with Etoposide and Carboplatin, Day 3, Median, read-out: Cmax",1100 ng/mL
same,half-life,"[2]; human, plasma, intravenous, 200 mg/m2, 200 mg/m^2 with Etoposide and Carboplatin, Day 3, Median, read-out: t½ (converted)",9.15 h
same,half-life,"[2]; human, plasma, intravenous, 200 mg/m2, 200 mg/m^2 with Etoposide and Carboplatin, Day 3, individual subjects, read-out: t½ (converted)",9.27 h
same,AUC(0-inf),"[2]; human, plasma, intravenous, 200 mg/m2, 200 mg/m^2 with etoposide and carboplatin, Day 1, mean, read-out: AUCinf averaged",2530 ng·h/mL
same,Cmax,"[2]; human, plasma, intravenous, 200 mg/m2, 200 mg/m^2 with etoposide and carboplatin, Day 1, mean, read-out: Cmax averaged",1200 ng/mL
same,half-life,"[2]; human, plasma, intravenous, 200 mg/m2, 200 mg/m^2 with etoposide and carboplatin, Day 1, mean, read-out: Half-lives averaged (converted)",8.19 h
same,half-life,"[2]; human, plasma, intravenous, 200 mg/m2, 200 mg/m^2 with etoposide and carboplatin, Day 1, range, read-out: Half-lives range",6.29 to 10.6 h
same,AUC,"[2]; human, plasma, intravenous, 200 mg/m2, 200 mg/m^2 with etoposide and carboplatin, Day 3, mean, read-out: AUCτ averaged",2570 ng·h/mL
same,Cmax,"[2]; human, plasma, intravenous, 200 mg/m2, 200 mg/m^2 with etoposide and carboplatin, Day 3, mean, read-out: Cmax averaging",1380 ng/mL
same,half-life,"[2]; human, plasma, intravenous, 200 mg/m2, 200 mg/m^2 with etoposide and carboplatin, Day 3, mean, read-out: Half-lives averaged (converted)",9.04 h
same,half-life,"[2]; human, plasma, intravenous, 200 mg/m2, 200 mg/m^2 with etoposide and carboplatin, Day 3, range, read-out: Half-lives range",6.99 to 11 h
same,concentration at 24.5 h,"[2]; human, plasma, intravenous, Day 1, 4 subjects, mean, read-out: concentration at 24.5 hours after the start of infusion, averaging",20 ng/mL
same,concentration at 24.5 h,"[2]; human, plasma, intravenous, Day 1, 4 subjects, range, read-out: concentration at 24.5 hours after the start of infusion, range",11.3 to 35.9 ng/mL
same,concentration at 24.5 h,"[2]; human, plasma, intravenous, Day 3, mean, read-out: concentration at 24.5 hours after dosing, averaged",24.6 ng/mL
same,concentration at 24.5 h,"[2]; human, plasma, intravenous, Day 3, range, read-out: concentration at 24.5 hours after dosing, range",11.5 to 34.5 ng/mL
same,AUC24.5,[3]; [11],2540 ng·h/mL
same,AUCinf,[3]; [11],2660 ng·h/mL
same,t½,[3]; [11],9.24 h
same,t½,"[3]; 200 mg/m^2 with Topotecan 0.75 mg/m^2 (Cohort 3), Day 1, Min",6.64 h
same,AUC24.5,[3]; [12],2540 ng·h/mL
same,AUCinf,[3]; [12],2240 ng·h/mL and 2660 ng·h/mL
same,t½,[3]; [12],6.64 h and 9.24 h and 6.69 h
same,t½,"[3]; 200 mg/m^2 with Topotecan 0.75 mg/m^2 (Cohort 3), Day 4, Min",6.87 h
same,t½,"[3]; 200 mg/m^2 with Topotecan 0.75 mg/m^2 (Cohort 3), Day 4, individual subjects",9.54 h and 6.87 h
same,AUC24.5,[3]; [13],2450 ng·h/mL
same,AUCinf,[3]; [13],2720 ng·h/mL
same,AUC24.5,[3]; [14],2130 ng·h/mL
same,t½,[3]; [14],6.14 h
same,AUC24.5,[3]; [15],2450 ng·h/mL and 2130 ng·h/mL
same,AUCinf,[3]; [15],2720 ng·h/mL and 2430 ng·h/mL
same,t½,"[3]; 200 mg/m^2 with Topotecan 1.25 mg/m^2 (Cohort 2), Day 4, Max",10.6 h
same,t½,"[3]; 200 mg/m^2 with Topotecan 1.25 mg/m^2 (Cohort 2), Day 4, Min",7.15 h
same,t½,"[3]; 200 mg/m^2 with Topotecan 1.25 mg/m^2 (Cohort 2), Day 4, individual subjects",9.10 h and 10.6 h
same,AUCinf,"[3]; 200 mg/m^2 with Topotecan […]^2 (Cohort 1), Day 1, Max",2430 ng·h/mL
